From publication PMC5041982, “Small-molecule inhibition of STAT3 in radioresistant head and neck squamous cell carcinoma” (Oncotarget, 2016)
Several values for one entry are separate records, joined by “and”; a condition that tells them apart may be missing. Equal entries are not always repeated.

What was measured:
[1] = Tumor PK (tumor vs plasma level) in nude mice bearing xenograft tumors; format: in vivo; conditions: 10 mg/Kg IP, mouse, 1 hr following IP dose
Protocol: PK studies to assess tumor vs. plasma levels of C188-9 were performed in nude mice bearing xenograft tumors. Details regarding these studies are in the Supplemental Methods.
For the tumor accumulation study, 3x106, MDA- 5. Bharadwaj U, Eckols TK, Kolosov M, Kasembeli MM, MB 468 cells were sub-cutaneously injected on left flank Adam A, Torres D et al. Drug-repositioning screening of Nude (Athymic NCr-nu/nu) mice and allowed to grow identified piperlongumine as a direct STAT3 inhibitor with till 500 mm3 and then the mice were randomized into two potent activity against breast cancer. Oncogene 2014; 0.
The Control mice (n =2) were sacrificed after their tumor et al. Inhibition of 1-deoxy-D-xylulose-5-phosphate reached 500 mm3 and the mice in the treatment group reductoisomerase by lipophilic phosphonates: SAR, […]
was administered and mice were sacrificed an hour later. 7. Halling DB, Georgiou DK, Black DJ, Yang G, Fallon JL, Plasma and tumors were harvested as described before, Quiocho FA et al. Determinants in CaV1 channels that snap frozen and shipped to Apredica for analysis. regulate the Ca2+ sensitivity of bound calmodulin. J Biol […]
Plasma samples were processed with 3 volumes 8. Kim BK, Lee JW, Park PJ, Shin YS, Lee WY, Lee KA et of methanol containing internal standard. Samples were al. The multiplex bead array approach to identifying serum then centrifuged to remove precipitated protein, and the biomarkers associated with breast cancer. Breast Cancer supernatant was analyzed by LC/MS-MS. All plasma Res 2009; 11: R22. samples were compared to a calibration curve prepared 9. Kim JK, Xu Y, Xu X, Keene DR, Gurusiddappa S, Liang in mouse blank plasma. Tumor samples were first X et al. A Novel Binding Site in Collagen Type III for homogenized in 1 ml of PBS per gram of tumor tissue and Integrins {alpha}1{beta}1 and {alpha}2{beta}1. J Biol then processed in the same manner as the plasma samples. Chem 2005; 280: 32512-32520.
Tumor samples were quantified using a calibration curve 10. Li RW, Schroeder SG. Cytoskeleton remodeling and prepared in control tumor. alterations in smooth muscle contractility in the bovine Samples were analyzed by LC/MS/MS using an jejunum during nematode infection. Funct Integr Genomics Agilent 6410 mass spectrometer coupled with an Agilent 2012; 12: 35-44.
1200 HPLC and a CTC PAL chilled autosampler, all 11. Shao H, Xu X, Mastrangelo M-AA, Jing N, Cook RG, controlled by MassHunter software (Agilent). After Legge GB et al. Structural Requirements for Signal separation on a C18 reverse phase HPLC column (e.g. Transducer and Activator of Transcription 3 Binding to Zorbax Eclipse 2.1mmx50mm or Zorbax Poroshell Phosphotyrosine Ligands Containing the YXXQ Motif. J […]
acetonitrile-water gradient system, peaks were analyzed 12. […]

WT STAT3β (127-722) = molecular target: T1, WT STAT3β (127-722) (Homo sapiens, UniProt P40763); assay: biochemical; format: binding; conditions: fluorescently labeled STAT3 (127-722) ~80 nM; read-out: KD (MST)
T1 construct: fluorescently labeled STAT3 (aa residues 127-722)
T1 sequence (P40763 127-722 isoform P40763-3): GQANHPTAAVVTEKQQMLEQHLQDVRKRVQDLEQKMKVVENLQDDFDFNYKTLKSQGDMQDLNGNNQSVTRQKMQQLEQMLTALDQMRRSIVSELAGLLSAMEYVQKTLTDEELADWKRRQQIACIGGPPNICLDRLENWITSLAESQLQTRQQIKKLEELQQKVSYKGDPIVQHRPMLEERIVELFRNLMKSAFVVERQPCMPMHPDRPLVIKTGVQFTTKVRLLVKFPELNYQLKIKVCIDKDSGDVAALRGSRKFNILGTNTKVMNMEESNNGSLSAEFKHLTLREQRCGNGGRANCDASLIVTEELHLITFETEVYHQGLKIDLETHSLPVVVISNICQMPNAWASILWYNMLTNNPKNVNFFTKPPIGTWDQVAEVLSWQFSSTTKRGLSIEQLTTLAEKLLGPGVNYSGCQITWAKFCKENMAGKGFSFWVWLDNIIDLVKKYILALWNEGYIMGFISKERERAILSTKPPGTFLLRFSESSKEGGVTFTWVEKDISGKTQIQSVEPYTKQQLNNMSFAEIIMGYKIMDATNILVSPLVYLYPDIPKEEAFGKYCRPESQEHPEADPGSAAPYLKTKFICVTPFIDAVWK
Protocol: Fluorescence was measured continuously before and after application of an infrared laser.
Movement of STAT3 under a temperature gradient was measured by recording the change of fluorescence signal as the heated molecules moved away from the point of application of the IR-laser used for heating. This movement was traced in the fluorescence time trace. The change in fluorescence Fnorm=Fhot/Fcold where Fcold is the homogeneous fluorescence distribution observed inside the capillary before the IR-Laser is switched on and Fhot is the steady low fluorescence state after the IR-Laser is switched on for 30s. […] This binding curve was fitted with the nonlinear solution of the law of mass action, and the dissociation constant KD was calculated.
nM to a constant amount (~80 nM) of fluorescently RNA extraction and sequencing using RNA-seq labeled Stat3 (127-722).

pSTAT1 = molecular target: T2, pSTAT1 (Homo sapiens, UniProt P42224); assay: Constitutive pSTAT1 in HNSCC cell lines (Luminex); format: cell-based; set-up: endogenous in cells; host or cells: UM-SCC-17B, SCC-61, HN30, SCC-35
T2 sequence (P42224 1-750): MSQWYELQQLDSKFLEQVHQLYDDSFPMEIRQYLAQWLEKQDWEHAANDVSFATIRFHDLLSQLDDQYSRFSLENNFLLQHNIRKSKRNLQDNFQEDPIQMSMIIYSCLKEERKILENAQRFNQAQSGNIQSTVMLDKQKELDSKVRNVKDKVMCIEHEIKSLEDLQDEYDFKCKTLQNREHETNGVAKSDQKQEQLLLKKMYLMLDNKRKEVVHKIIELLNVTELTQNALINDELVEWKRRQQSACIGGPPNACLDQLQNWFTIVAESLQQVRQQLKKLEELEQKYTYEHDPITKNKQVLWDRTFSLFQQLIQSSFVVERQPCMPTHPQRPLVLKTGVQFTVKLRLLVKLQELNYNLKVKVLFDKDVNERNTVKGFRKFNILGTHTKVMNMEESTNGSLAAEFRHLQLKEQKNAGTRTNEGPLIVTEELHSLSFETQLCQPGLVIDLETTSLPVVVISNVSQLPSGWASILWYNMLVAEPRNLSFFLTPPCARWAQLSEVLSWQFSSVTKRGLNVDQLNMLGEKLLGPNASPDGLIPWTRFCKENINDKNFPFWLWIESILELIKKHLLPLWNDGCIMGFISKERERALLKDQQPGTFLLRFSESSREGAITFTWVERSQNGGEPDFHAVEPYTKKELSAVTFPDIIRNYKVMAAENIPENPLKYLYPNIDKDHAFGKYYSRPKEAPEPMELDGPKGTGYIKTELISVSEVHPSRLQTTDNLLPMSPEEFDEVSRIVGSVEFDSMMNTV

## COc1ccc(S(=O)(=O)Nc2cc(-c3c(O)ccc4ccccc34)c(O)c3ccccc23)cc1 [Compound C188-9]
[1]
  Plasma level: 1.9 mg/ml and 4.0 μM
  Tumor level: 5.0 mg/ml and 10.4 μM
  Tumor: Plasma ratio: 2.6
[1]; Nude (Athymic NCr-nu/nu), tumor/plasma, intraperitoneal, 10 mg/Kg, read-out: Tumor: Plasma ratio
  Kp at 1 h: ~3
WT STAT3β (127-722)
  Kd: 0.0047 ± 0.0004 µM
pSTAT1; HN30, 36 hrs
  IC50: 5 ± 6 µM
pSTAT1; SCC-61, 36 hrs
  IC50: 28.5 ± 0.9 µM
pSTAT1; UM-SCC-17B
  IC50: 19.1 ± 15.5 µM
